From ChEMBL document CHEMBL4665836, “Overcoming β-Lactam resistance in Pseudomonas aeruginosa using non-canonical tobramycin-based antibiotic adjuvants” (2020)

What was measured:
Assay type in all cases: functional
Pseudomonas aeruginosa [1] = test: Potentiation of ceftazidime-induced antibacterial activity against carbapenem-resistant Pseudomonas aeruginosa 109084 clinical isolate assessed as fold reduction in ceftazidime MIC at 8 uM in presence of beta-lactamase inhibitor, avi-bactam
Pseudomonas aeruginosa [2] = test: Potentiation of imipenem-induced antibacterial activity against wild type Pseudomonas aeruginosa PAO1 assessed as fold reduction in imipenem MIC at 8 uM
Pseudomonas aeruginosa [3] = test: Antibacterial activity against Pseudomonas aeruginosa PAO750 harboring mexAB-oprM/mexCD-oprJ/mexEF-oprN/mexJK/mexXY/opmH efflux deficient mutant
Pseudomonas aeruginosa [4] = test: Potentiation of imipenem-induced antibacterial activity against carbapenem and colistin-resistant Pseudomonas aeruginosa 114228 clinical isolate assessed as imipenem MIC at 8 uM by checkerboard assay (reference value: 8 ug/ml)
Pseudomonas aeruginosa [5] = test: Potentiation of ceftazidime-induced antibacterial activity against carbapenem-resistant Pseudomonas aeruginosa 107092 clinical isolate assessed as ceftazidime MIC at 8 uM by checkerboard assay (reference value: 128 ug/ml)
Pseudomonas aeruginosa [6] = test: Potentiation of ceftazidime-induced antibacterial activity against carbapenem and colistin-resistant Pseudomonas aeruginosa 91433 clinical isolate assessed as ceftazidime MIC at 8 uM by checkerboard assay (reference value: 4 ug/ml)
Pseudomonas aeruginosa [7] = test: Potentiation of imipenem-induced antibacterial activity against carbapenem-resistant Pseudomonas aeruginosa PAO200 harboring mexAB-oprM efflux deficient mutant assessed as imipenem MIC at 8 uM by checkerboard assay (reference value: 4 ug/ml)
Pseudomonas aeruginosa [8] = test: Potentiation of imipenem-induced antibacterial activity against carbapenem-resistant Pseudomonas aeruginosa 88949 clinical isolate assessed as imipenem MIC at 8 uM by checkerboard assay (reference value: 64 ug/ml)
Pseudomonas aeruginosa [9] = test: Potentiation of aztreonam-induced antibacterial activity against carbapenem and colistin-resistant Pseudomonas aeruginosa 114228 clinical isolate assessed as aztreonam MIC at 8 uM by checkerboard assay (reference value: 32 ug/ml)
Pseudomonas aeruginosa [10] = test: Potentiation of aztreonam-induced antibacterial activity against carbapenem-resistant Pseudomonas aeruginosa PAO750 harboring mexAB-oprM/mexCD-oprJ/mexEF-oprN/mexJK/mexXY/opmH efflux deficient mutant assessed as aztreonam MIC at 8 uM by checkerboard assay (reference value: 0.5 ug/ml)
Pseudomonas aeruginosa [11] = test: Potentiation of aztreonam-induced antibacterial activity against carbapenem-resistant Pseudomonas aeruginosa 88949 clinical isolate assessed as fold reduction in aztreonam MIC at 8 uM in presence of beta-lactamase inhibitor, avi-bactam
Pseudomonas aeruginosa [12] = test: Potentiation of piperacillin-induced antibacterial activity against wild type Pseudomonas aeruginosa PAO1 assessed as fold reduction in piperacillin MIC at 8 uM
Pseudomonas aeruginosa [13] = test: Potentiation of imipenem-induced antibacterial activity against carbapenem-resistant Pseudomonas aeruginosa 108590 clinical isolate assessed as imipenem MIC at 8 uM by checkerboard assay (reference value: 16 ug/ml)
Pseudomonas aeruginosa [14] = test: Potentiation of imipenem-induced antibacterial activity against carbapenem-resistant Pseudomonas aeruginosa PAO750 harboring mexAB-oprM/mexCD-oprJ/mexEF-oprN/mexJK/mexXY/opmH efflux deficient mutant assessed as imipenem MIC at 8 uM by checkerboard assay (reference value: 4 ug/ml)
Pseudomonas aeruginosa [15] = test: Potentiation of ceftazidime-induced antibacterial activity against carbapenem-resistant Pseudomonas aeruginosa 88949 clinical isolate assessed as fold reduction in ceftazidime MIC at 8 uM in presence of beta-lactamase inhibitor, avi-bactam
Pseudomonas aeruginosa [16] = test: Potentiation of aztreonam-induced antibacterial activity against carbapenem-resistant Pseudomonas aeruginosa PAO200 harboring mexAB-oprM efflux deficient mutant assessed as aztreonam MIC at 8 uM by checkerboard assay (reference value: 0.25 ug/ml)
Pseudomonas aeruginosa [17] = test: Potentiation of aztreonam-induced antibacterial activity against carbapenem-resistant Pseudomonas aeruginosa 101885 clinical isolate assessed as aztreonam MIC at 8 uM by checkerboard assay (reference value: 16 ug/ml)
Pseudomonas aeruginosa [18] = test: Potentiation of ceftazidime-induced antibacterial activity against carbapenem-resistant Pseudomonas aeruginosa 260-97103 clinical isolate assessed as ceftazidime MIC at 8 uM by checkerboard assay (reference value: 32 ug/ml)
Pseudomonas aeruginosa [19] = test: Potentiation of imipenem-induced antibacterial activity against carbapenem-resistant Pseudomonas aeruginosa 107092 clinical isolate assessed as imipenem MIC at 8 uM by checkerboard assay (reference value: 64 ug/ml)
Pseudomonas aeruginosa [20] = test: Potentiation of ceftazidime-induced antibacterial activity against carbapenem-resistant Pseudomonas aeruginosa 259-96918 clinical isolate expressing metallo-beta-lactamase assessed as ceftazidime MIC at 8 uM by checkerboard assay (reference value: 512 ug/ml)
Pseudomonas aeruginosa [21] = test: Potentiation of aztreonam-induced antibacterial activity against carbapenem-resistant Pseudomonas aeruginosa 262-101856 clinical isolate assessed as aztreonam MIC at 8 uM by checkerboard assay (reference value: 32 ug/ml)
Pseudomonas aeruginosa [22] = test: Potentiation of ceftazidime-induced antibacterial activity against carbapenem-resistant Pseudomonas aeruginosa 86052 clinical isolate assessed as ceftazidime MIC at 8 uM by checkerboard assay (reference value: 64 ug/ml)
Pseudomonas aeruginosa [23] = test: Potentiation of imipenem-induced antibacterial activity against carbapenem-resistant Pseudomonas aeruginosa 109084 clinical isolate assessed as imipenem MIC at 8 uM by checkerboard assay (reference value: 16 ug/ml)
Pseudomonas aeruginosa [24] = test: Potentiation of imipenem-induced antibacterial activity against carbapenem-resistant Pseudomonas aeruginosa 100036 clinical isolate assessed as imipenem MIC at 8 uM by checkerboard assay (reference value: 8 ug/ml)
Pseudomonas aeruginosa [25] = test: Potentiation of ceftazidime-induced antibacterial activity against carbapenem-resistant Pseudomonas aeruginosa 86052 clinical isolate assessed as fold reduction in ceftazidime MIC at 8 uM in presence of beta-lactamase inhibitor, avi-bactam
Pseudomonas aeruginosa [26] = test: Potentiation of imipenem-induced antibacterial activity against carbapenem-resistant Pseudomonas aeruginosa 107092 clinical isolate assessed as fold reduction in imipenem MIC at 8 uM in presence of beta-lactamase inhibitor, rele-bactam
Pseudomonas aeruginosa [27] = test: Potentiation of aztreonam-induced antibacterial activity against carbapenem-resistant Pseudomonas aeruginosa 86052 clinical isolate assessed as aztreonam MIC at 8 uM by checkerboard assay (reference value: 64 ug/ml)
Pseudomonas aeruginosa [28] = test: Potentiation of aztreonam-induced antibacterial activity against carbapenem-resistant Pseudomonas aeruginosa 86052 clinical isolate assessed as fold reduction in aztreonam MIC at 8 uM in presence of beta-lactamase inhibitor, avi-bactam
Pseudomonas aeruginosa [29] = test: Potentiation of imipenem-induced antibacterial activity against wild-type Pseudomonas aeruginosa PAO1 assessed as imipenem MIC at 8 uM by checkerboard assay (reference value: 4 ug/ml)
Pseudomonas aeruginosa [30] = test: Potentiation of aztreonam-induced antibacterial activity against wild type Pseudomonas aeruginosa PAO1 assessed as fold reduction in aztreonam MIC at 8 uM
Pseudomonas aeruginosa [31] = test: Potentiation of ceftazidime-induced antibacterial activity against carbapenem-resistant Pseudomonas aeruginosa 264-104354 clinical isolate assessed as ceftazidime MIC at 8 uM by checkerboard assay (reference value: 128 ug/ml)
Pseudomonas aeruginosa [32] = test: Potentiation of imipenem-induced antibacterial activity against carbapenem-resistant Pseudomonas aeruginosa 86052 clinical isolate assessed as imipenem MIC at 8 uM by checkerboard assay (reference value: 32 ug/ml)

Row | SMILES | fold change (FC) (Pseudomonas aeruginosa [1]) | fold change (FC) (Pseudomonas aeruginosa [2]) | MIC (Pseudomonas aeruginosa [3]) [µg/mL] | MIC (Pseudomonas aeruginosa [4]) [µg/mL] | MIC (Pseudomonas aeruginosa [7]) [µg/mL] | MIC (Pseudomonas aeruginosa [8]) [µg/mL] | fold change (FC) (Pseudomonas aeruginosa [11]) | fold change (FC) (Pseudomonas aeruginosa [12]) | MIC (Pseudomonas aeruginosa [13]) [µg/mL] | MIC (Pseudomonas aeruginosa [14]) [µg/mL] | fold change (FC) (Pseudomonas aeruginosa [15]) | MIC (Pseudomonas aeruginosa [19]) [µg/mL] | MIC (Pseudomonas aeruginosa [23]) [µg/mL] | MIC (Pseudomonas aeruginosa [24]) [µg/mL] | fold change (FC) (Pseudomonas aeruginosa [25]) | fold change (FC) (Pseudomonas aeruginosa [26]) | fold change (FC) (Pseudomonas aeruginosa [28]) | MIC (Pseudomonas aeruginosa [29]) [µg/mL] | fold change (FC) (Pseudomonas aeruginosa [30]) | MIC (Pseudomonas aeruginosa [32]) [µg/mL] | also measured
1 | Cl.Cl.Cl.Cl.Cl.Cl.NC[C@H]1O[C@H](O[C@H]2[C@H](OCCCCCCCCCCCCN3CCN(c4cc5c(cc4F)c(=O)c(C(=O)O)cn5C4CC4)CC3)[C@@H](O[C@H]3O[C@H](CO)[C@@H](O)[C@H](N)[C@H]3O)[C@H](N)C[C@@H]2N)[C@H](N)C[C@@H]1O | 16 | 2 | 2 | 2 | 1 | 8 | 16 | 2 | 0.25 | 0.5 | 16 | 8 | 8 | 2 | 16 | 16 | 16 | 0.5 | 2 | 8 | MIC (Pseudomonas aeruginosa [5]): 16 µg/mL; MIC (Pseudomonas aeruginosa [6]): 2 µg/mL; MIC (Pseudomonas aeruginosa [9]): 2 µg/mL; MIC (Pseudomonas aeruginosa [10]): 0.06 µg/mL; MIC (Pseudomonas aeruginosa [16]): 0.03 µg/mL; MIC (Pseudomonas aeruginosa [17]): 1 µg/mL; MIC (Pseudomonas aeruginosa [18]): 4 µg/mL; MIC (Pseudomonas aeruginosa [20]): 64 µg/mL; MIC (Pseudomonas aeruginosa [21]): 4 µg/mL; MIC (Pseudomonas aeruginosa [22]): 32 µg/mL; MIC (Pseudomonas aeruginosa [27]): 8 µg/mL; MIC (Pseudomonas aeruginosa [31]): 16 µg/mL
2 | NC[C@H]1O[C@H](O[C@H]2[C@H](OCCCCCCCCN3CCCNCCNCCCNCC3)[C@@H](O[C@H]3O[C@H](CO)[C@@H](O)[C@H](N)[C@H]3O)[C@H](N)C[C@@H]2N)[C@H](N)C[C@@H]1O.O=C(O)C(F)(F)F.O=C(O)C(F)(F)F.O=C(O)C(F)(F)F.O=C(O)C(F)(F)F.O=C(O)C(F)(F)F.O=C(O)C(F)(F)F.O=C(O)C(F)(F)F.O=C(O)C(F)(F)F.O=C(O)C(F)(F)F | 16 | 2 | 128 | 8 | 2 | 32 | 16 | 2 | 16 | 2 | 16 | 16 | 8 | 8 | 16 | 16 | 16 | 2 | 2 | 16 | –
3 | NC[C@H]1O[C@H](O[C@H]2[C@H](OCCCCCCCCN3CCCNCCNCCCNCC3)[C@@H](O)[C@H](N)C[C@@H]2N)[C@H](N)C[C@@H]1O.O=C(O)C(F)(F)F.O=C(O)C(F)(F)F.O=C(O)C(F)(F)F.O=C(O)C(F)(F)F.O=C(O)C(F)(F)F.O=C(O)C(F)(F)F.O=C(O)C(F)(F)F.O=C(O)C(F)(F)F | 16 | 2 | > 128 | 8 | 2 | 64 | 16 | 2 | 16 | 4 | 16 | 32 | 16 | 8 | 16 | 16 | 16 | 4 | 2 | 16 | MIC (Pseudomonas aeruginosa [5]): 32 µg/mL; MIC (Pseudomonas aeruginosa [6]): 2 µg/mL; MIC (Pseudomonas aeruginosa [9]): 16 µg/mL; MIC (Pseudomonas aeruginosa [10]): 0.13 µg/mL; MIC (Pseudomonas aeruginosa [16]): 0.06 µg/mL; MIC (Pseudomonas aeruginosa [17]): 4 µg/mL; MIC (Pseudomonas aeruginosa [18]): 16 µg/mL; MIC (Pseudomonas aeruginosa [20]): 128 µg/mL; MIC (Pseudomonas aeruginosa [21]): 8 µg/mL; MIC (Pseudomonas aeruginosa [22]): 64 µg/mL; MIC (Pseudomonas aeruginosa [27]): 64 µg/mL; MIC (Pseudomonas aeruginosa [31]): 32 µg/mL
4 | Cl.Cl.Cl.Cl.Cl.NC[C@H]1O[C@H](O[C@H]2[C@H](OCCCCCCCCCCCCN3CCN(c4cc5c(cc4F)c(=O)c(C(=O)O)cn5C4CC4)CC3)[C@@H](O)[C@H](N)C[C@@H]2N)[C@H](N)C[C@@H]1O | 16 | 2 | 2 | 1 | 1 | 64 | 16 | 2 | 0.5 | 2 | 16 | 16 | 8 | 4 | 16 | 16 | 16 | 1 | 2 | 4 | MIC (Pseudomonas aeruginosa [5]): 64 µg/mL; MIC (Pseudomonas aeruginosa [6]): 0.5 µg/mL; MIC (Pseudomonas aeruginosa [9]): 8 µg/mL; MIC (Pseudomonas aeruginosa [10]): 0.13 µg/mL; MIC (Pseudomonas aeruginosa [16]): 0.03 µg/mL; MIC (Pseudomonas aeruginosa [17]): 4 µg/mL; MIC (Pseudomonas aeruginosa [18]): 0.25 µg/mL; MIC (Pseudomonas aeruginosa [20]): 128 µg/mL; MIC (Pseudomonas aeruginosa [21]): 16 µg/mL; MIC (Pseudomonas aeruginosa [22]): 4 µg/mL; MIC (Pseudomonas aeruginosa [27]): 4 µg/mL; MIC (Pseudomonas aeruginosa [31]): 64 µg/mL
5 | NC[C@H]1O[C@H](O[C@H]2[C@H](OCCCCc3cn(CCCCO[C@@H]4[C@@H](O[C@H]5O[C@H](CO)[C@@H](O)[C@H](N)[C@H]5O)[C@H](N)C[C@H](N)[C@H]4O[C@H]4O[C@H](CN)[C@@H](O)C[C@H]4N)nn3)[C@@H](O[C@H]3O[C@H](CO)[C@@H](O)[C@H](N)[C@H]3O)[C@H](N)C[C@@H]2N)[C@H](N)C[C@@H]1O.O=C(O)C(F)(F)F.O=C(O)C(F)(F)F.O=C(O)C(F)(F)F.O=C(O)C(F)(F)F.O=C(O)C(F)(F)F.O=C(O)C(F)(F)F.O=C(O)C(F)(F)F.O=C(O)C(F)(F)F.O=C(O)C(F)(F)F.O=C(O)C(F)(F)F | 16 | 2 | > 128 | 0.5 | 1 | 4 | 16 | 2 | 4 | 1 | 16 | 16 | 8 | 4 | 16 | 16 | 16 | 1 | 2 | 16 | MIC (Pseudomonas aeruginosa [5]): 32 µg/mL; MIC (Pseudomonas aeruginosa [6]): 1 µg/mL; MIC (Pseudomonas aeruginosa [9]): 4 µg/mL; MIC (Pseudomonas aeruginosa [10]): 0.06 µg/mL; MIC (Pseudomonas aeruginosa [16]): 0.03 µg/mL; MIC (Pseudomonas aeruginosa [17]): 4 µg/mL; MIC (Pseudomonas aeruginosa [18]): 8 µg/mL; MIC (Pseudomonas aeruginosa [20]): 128 µg/mL; MIC (Pseudomonas aeruginosa [21]): 8 µg/mL; MIC (Pseudomonas aeruginosa [22]): 64 µg/mL; MIC (Pseudomonas aeruginosa [27]): 8 µg/mL; MIC (Pseudomonas aeruginosa [31]): 32 µg/mL
